Laboratory results as given in patent US20180344748A1, “METHODS AND COMPOSITIONS FOR PREVENTING OR TREATING CHRONIC INFLAMMATORY DISEASES” (ENTERIN LABORATORIES, INC., priority 2017, published 2018).

Columns and labels:
Assay type in all cases: cell-based
[1] = tested on: human neutrophils; assay: Chemotaxis assay, human neutrophils; conditions: bell shaped concentration curve; FIG. 3A
Method: (§1) FIGS. 3A-F: α-Synuclein is a chemoattractant dependent on CD11b. Assays were conducted as described in the examples below. The average of 3 independent assays for each sample is presented. The concentration of the α-synuclein aggregate is in terms of the monomer. A positive control, FMLP, is noted in black. NAc 1-21, the N-acetylated peptide corresponding to the first 21 amino acids of α-synuclein; 1-25, a peptide corresponding to the first 25 amino acids. FIG. 3A=Human Neutrophils; FIG. 3B=Human monocytes; FIGS. 3C and 3D=Representative photos of the cellular response. FIG. 3E=Neutrophils from CD11b −/− or wild type mice (0.5×10^6/ml), assayed as described in the examples. FIG. 3F=Human neutrophils incubated in the presence of anti-CD11b antibody or control (50 μg/ml each). CM, control media (negative control)
(§2) Chemotaxis, or the movement of cells in response to a chemical stimulus, is routinely measured in a Boyden chamber. In this apparatus, immune cells are attached to one side of a membrane containing pores through which the immune cells can traffic. On the other side of the membrane a chemoattractant is introduced. Over the course of several hours the immune cells migrate from the side of the membrane on which they were initially placed to the side exposed to the chemoattractant. […] After 24 hours the number of immune cells that have migrated to towards the chemoattractant are counted. […]

[2] = tested on: human monocytes; assay: Chemotaxis assay, human monocytes; conditions: bell shaped concentration curve; FIG. 3B
Method: as §1, §2

[3] = tested on: human monocyte derived dendritic cells; assay: Dendritic cell maturation, flow cytometry of surface markers; conditions: 10 μM, 48 h, FIG. 4
Method: FIG. 4: Human monocyte derived dendritic cells were incubated at 5×10^5/ml in the presence of recombinant monomeric or aggregated alpha-synuclein, and the NAc 1-21 amino terminal peptide of alpha-synuclein (each at a final concentration of 10 μM) for 48 h before they were immunostained and analyzed by flow cytometry for the expression of the indicated surface molecules. E. coli lipopolysaccharide (LPS) (100 ng/ml) was included as a positive control. Shown are the results of one experiment representative of three. The ordinate of […].
Chemotaxis assays followed published procedures. De et al. (2000). Neutrophils and monocytes were isolated from the blood of healthy human donors as described. Id. Recombinant human α-synuclein (lot #20162050, endotoxin contamination 18.6 EU/mg) was from Proteos, Inc. via the Michael J. Fox Foundation. The α-synuclein aggregates were made following a protocol provided by Proteos. […]
Human monocyte derived dendritic cells were exposed for 2 days to α-synuclein monomer, aggregate, and N—Ac 1-21 peptide and then analyzed by flow cytometry to measure the extent of phenotypic maturation, using CD80, CD83, CD86, HLA-ABC, and HLA-DR as determinants (FIG. 4).

Substance | chemotactic activity towards human neutrophils [1] | chemotactic activity towards human monocytes [2] | dendritic cell maturation (CD80, CD83, CD86, HLA-ABC, HLA-DR) [3]
N-acetylated peptide: the N-acetylated peptide corresponding to the first 21 amino acids of α-synuclein | retained the chemotactic activity of the full-length protein | retained the chemotactic activity of the full-length protein | did not
peptide, extending to residue 25: a peptide corresponding to the first 25 amino acids of α-synuclein, lacking the N-acetyl moiety | inactive | inactive | –
